Measured values published in PMC7472048 (Viruses, 2020).

Columns and labels:
r3Can = experiment: organism not typed; assay type: cell-based, Junín virus (JUNV) Candid#1 strain; details: Vero, read-out: r3Can (Vero cell) EC50
LASV Z-mediated budding = assay type: cell-based, Lassa virus (LASV)
LCMV CL-13 = test system: LCMV CL-13; design: species or system C57BL/6 mice; details: mouse, in vivo, 150 mg/kg/day
in vitro [1] = details: African green monkey (Chlorocebus aethiops)
in vitro [2] = details: human
rLCMV/ZsG = experiment: microbe, parasite or virus in culture; assay type: cell-based, lymphocytic choriomeningitis virus (LCMV); details: Mammarenavirus choriomeningitidis, A549, 48 h, read-out: rLCMV (A549 cell) EC50
rLASV = experiment: microbe, parasite or virus in culture; assay type: cell-based, Lassa virus (LASV); details: Mammarenavirus lassaense, A549, read-out: rLASV (A549 cell) EC50
rCL-13/ZsG = assay type: cell-based, lymphocytic choriomeningitis virus (LCMV)
[3] = test system: IFNB and ISG mRNA expression; assay type: cell-based, Homo sapiens
r3Can/GFP = assay type: cell-based, Junín virus (JUNV)
rLASV/GFP = assay type: cell-based, Lassa virus (LASV)
influenza A virus = details: mouse, in vivo; cited from earlier work

| SMILES | EC50 (r3Can) | Z budding efficiency, ratio ZVLP:(ZVLP+ZWCL) (LASV Z-mediated budding) | body weight loss and recovery versus vehicle control (LCMV CL-13) | viral load (serum virus titers) (LCMV CL-13) | CC50 (in vitro [1]) | CC50 (in vitro [2]) | EC50 (rLCMV/ZsG) | EC50 (rLASV) | Cmp 4-induced antiviral effect with exogenous uridine (rCL-13/ZsG) | mRNA levels of IFNB and ISGs in LCMV-infected cells [3] | ISG15 and IFIT1 expression in non-infected A549 cells ([3]; 5 µM, 48 h) | expression of IFNB in non-infected A549 cells ([3]; 5 µM, 48 h) | r3Can/GFP propagation (r3Can/GFP) | rLASV/GFP propagation (rLASV/GFP) | survival (influenza A virus) |
| --- | --- | --- | --- | --- | --- | --- | --- | --- | --- | --- | --- | --- | --- | --- | --- |
| COc1cccc(-c2ccc(NC(=O)C3=C(C(=O)O)CCC3)c(F)c2)c1 [Cmp 4, vidofludimus calcium] | 1680 nM | very modest, but statistically significant, effect | less body weight loss and faster recovery | did not cause a significant reduction | 5920 nM | 54400 nM | 1280 nM | 3020 nM | reverted |  |  |  |  |  |  |
| Cc1c(-c2ccc(-c3ccccc3F)cc2)nc2ccc(F)cc2c1C(=O)O [Brequinar] | 40 nM |  |  |  | 47200 nM | 79000 nM | 41 nM | 63 nM |  | significantly decreased | moderately upregulated | Neither Cmp 1 nor brequinar treatment significantly affected | strongly inhibited | strongly inhibited |  |
| CCOc1ccc(-c2cc(C(=O)O)c3cc(Br)ccc3n2)cc1 [FA-613] |  |  |  |  |  |  |  |  |  |  |  |  |  |  | increased survival |
